Source: patent US8940314B2, “Repellent to insects harmful to a plant and method for repelling the same” (Riken, priority 2004, dated 2015)

Legend:
Assay type in all cases: in vivo
greenhouse whitefly = test: Repelling effect on greenhouse whitefly, treated common bean seed leaves; settings: ingredient 80 parts + auxiliary A 20 parts, 200 mg/100 ml water, 3 days at 22 to 30° C., number of adult insects vs distilled water area
Description: Main ingredients (80 parts by mass) and auxiliary A (polyoxyethylene (5) monododecyl ether) (20 parts by mass) listed in Table 1 were mixed to prepare a sample of the repellent of the present invention.
(§1) The repellent was diluted with water to 200 mg/100 ml which was then applied to seed leaves of common bean (variety: Taisho Kintoki). As control samples, auxiliary A alone and distilled water were used. After drying, the plant was maintained at 22 to 30° C. for 3 days in an isolated room in which adult greenhouse whiteflies were grown and the number of adult insects that came flying was counted with time. A repelling ratio was determined according to the following formula. Repelling ratio (%)=100×[1−(the number of adult insects in the repellent applied area)/(the number of adult insects in the distilled water applied area)]

silverleaf whitefly = test: Repelling effect on silverleaf whitefly, treated cucumber seed leaves; settings: ingredient 80 parts + auxiliary B 20 parts, 200 mg/100 ml water, 3 days at 22 to 30° C., number of adult insects vs distilled water area
Description: (§2) (polyoxyethylene phenyl ether+dodecylbenzenesulufonate): soybean oil (1:1:1) (20 parts by mass) listed in Table 2 were mixed to prepare a sample of the repellent of the present invention. The repellent was diluted with water to 200 mg/100 ml which was then applied to seed leaves of cucumber (variety: Sagami Hanjiro). As control samples, auxiliary B alone and distilled water were used. After drying, the plant was maintained at 22 to 30° C. for 3 days in an isolated room in which adult silverleaf whiteflies were grown and the number of adult insects that came flying was counted with time. A repelling ratio was determined according to the following formula.

cotton aphid = test: Repelling effect on cotton aphid, treated cucumber true leaves; settings: ingredient 80 parts + auxiliary A 20 parts, 200 mg/100 ml water, 7 days at 22 to 30° C., number of adult insects vs distilled water area
Description: Main ingredients (80 parts by mass) and auxiliary A (polyoxyethylene (5) monododecyl ether) (20 parts by mass) listed in Table 3 were mixed to prepare a sample of the repellent of the present invention.
as §1, with “to true” for “to seed”, “of cucumber” for “of common bean”, “(variety: Sagami Hanjiro at 0.7 leaf stage).” for “(variety: Taisho Kintoki).”, “for 7” for “for 3”, “which cotton aphid” for “which adult greenhouse whiteflies”

green peach aphid = test: Repelling effect on green peach aphid, treated eggplant seed leaves; settings: ingredient 80 parts + auxiliary B 20 parts, 200 mg/100 ml water, 7 days at 22 to 30° C., number of adult insects vs distilled water area
Description: as §2, with “oil (1:1:1))” for “oil (1:1:1)”, “Table 4” for “Table 2”, “of eggplant” for “of cucumber”, “(variety: Senryo No. 2).” for “(variety: Sagami Hanjiro).”, “for 7” for “for 3”, “which green peach aphid” for “which adult silverleaf whiteflies”

western flower thrips = test: Repelling effect on western flower thrips, insect damage on treated eggplant true leaves; settings: ingredient 80 parts + auxiliary A 20 parts, 200 mg/100 ml water, 10 days at 22 to 30° C., total degree of insect damage vs distilled water area
Description: Main ingredients (80 parts by mass) and auxiliary A (polyoxyethylene (5) monododecyl ether) (20 parts by mass) listed in Table 5 were mixed to prepare a sample of the repellent of the present invention. The repellent was diluted with water to 200 mg/100 ml which was then applied to true leaves of eggplant (variety: Senryo No. 2 at 3.5 leaf stage). As control samples, auxiliary A alone and distilled water were used. After drying, the plant was maintained at 22 to 30° C. for 10 days in an isolated room in which adult western flower thrips were grown and the degree of insect damage (the number of insect damage spots) was observed and were totaled based on the criteria: 0 for no damage, 1 for very slight damage, 3 for slight damage, 5 for remarkable damage and 10 for serious damage. A repelling ratio was determined according to the following formula.

Thrips palmi Karny = test: Repelling effect on Thrips palmi Karny, insect damage on treated eggplant true leaves; settings: ingredient 80 parts + auxiliary B 20 parts, 200 mg/100 ml water, 10 days at 22 to 30° C., total degree of insect damage vs distilled water area
Description: The same procedures in Example 5 were repeated to prepare the repellent except that auxiliary B (diglycerin monooleate : (polyoxyethylene phenyl ether+dodecylbenzenesulufonate): soybean oil (1:1:1)) was used in place of auxiliary A.
The repellent was diluted with water to 200 mg/100 ml which was then applied to true leaves of eggplant (variety: Senryo No. 2 at 3.5 leaf stage). As control samples, auxiliary B alone and distilled water were used. After drying, the plant was maintained at 22 to 30° C. for 10 days in an isolated room in which adult Thrips palmi Karny were grown and the degree of insect damage (the number of insect damage spots) was observed and were totaled based on the criteria: 0 for no damage, 1 for very slight damage, 3 for slight damage, 5 for remarkable damage and 10 for serious damage. A repelling ratio was determined according to the following formula. Repelling ratio (%)=100×[1−(the total degree of insect damage in the repellent applied area)/(the total degree of insect damage in the distilled water applied area)]

Row | Molecule | Repelling ratio (%) (greenhouse whitefly) | Repelling ratio (%) (silverleaf whitefly) | Repelling ratio (%) (cotton aphid) | Repelling ratio (%) (green peach aphid) | Repelling ratio (%) (western flower thrips) | Repelling ratio (%) (Thrips palmi Karny)
1 | CCCCCCCCCC(=O)O [1-18, n-capric acid] | 90 | 86 | 76 | 68 |  | 
2 | CCCCCCCC/C=C\CCCCCCCC(=O)O [1-19, oleic acid] | 84 | 68 | 70 | 70 | 76 | 69
3 | CC(C)CCCCCCCCCCCCCCC(=O)O [1-20, isostearic acid] | 72 | 65 |  |  |  | 
4 | OC[C@@H](O)[C@H]1OC[C@H](O)[C@H]1O [1-21, sorbitan] | 74 | 67 | 68 | 62 |  | 
5 | CCCCCCCCCCCC(=O)OCC(COC(=O)CCCCCCCCCCC)OC(=O)CCCCCCCCCCC [5-22, glycerin trilaurate] |  |  |  |  | 82 | 90
6 | OC[C@@H](O)[C@@H](O)[C@H](O)[C@@H](O)CO [5-23, sorbitol] |  |  |  |  | 61 | 55
7 | citric acid unsaturated fatty acid monoglyceride [1-7] | 73 | 71 | 92 | 81 |  | 
8 | decaglycerin laurate [1-9] | 80 | 70 | 90 | 83 |  | 
9 | decaglycerin oleate [1-8] | 76 | 75 | 95 | 78 |  | 
10 | decaglycerin stearate [5-7] |  |  |  |  | 77 | 70
11 | diglycerin monostearate [5-5] |  |  |  |  | 60 | 55
12 | glycerin diacetomonolaurate [1-6] | 96 | 94 | 82 | 77 |  | 
13 | glycerin monoacetomonostearate [5-8] |  |  |  |  | 68 | 55
14 | glycerin monocaprylate [1-1] | 82 | 73 | 88 | 76 |  | 
15 | glycerin monolaurate [5-1] |  |  |  |  | 62 | 65
16 | glycerin monooleate [1-2] | 82 | 70 | 85 | 81 |  | 
17 | glycerin monopalmitate [5-3] |  |  |  |  | 68 | 71
18 | glycerin monostearate [5-2] |  |  |  |  | 58 | 62
19 | poly (2-3) glycerin oleate [5-6] |  |  |  |  | 58 | 68
20 | polyoxyethylene (5) monododecyl ether [1-23, reference compound] | 5 |  | 3 |  | 8 | 
21 | polyoxyethylene (20) sorbitan [5-13] |  |  |  |  | 68 | 54
22 | polyoxyethylene (40) sorbitan [1-15] | 70 | 85 | 75 | 82 | 75 | 69
23 | polyoxyethylene (60) sorbitan [1-16] | 73 | 77 | 78 | 80 |  | 
24 | propylene glycol monooleate [1-10] | 82 | 73 | 82 | 76 | 80 | 81
25 | sorbitan laurate [1-4] | 92 | 92 | 96 | 82 | 53 | 63
26 | sorbitan oleate [1-5] | 80 | 75 | 93 | 85 |  | 
27 | sorbitan palmitate [5-11] |  |  |  |  | 72 | 73
28 | succinic acid saturated acid monoglyceride [5-9] |  |  |  |  | 70 | 71
29 | sucrose fatty acid ester (laurate) [5-25] |  |  |  |  | 55 | 68
30 | sucrose fatty acid ester (oleate) [5-24] |  |  |  |  | 58 | 62
